# Experimental data as given in PubChem BioAssay (NCI).
#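 48-hour exposure; five concentrations; linearly interpolated endpoints. GI50 = concentration required for 50% inhibition of growth. TGI denotes the concentration required for complete inhibition of growth.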
# How the values were obtained:
# Experiment in all cases: DTP human tumour cell line panel, 48 h
# 786-0 renal = tested on: 786-0 renal
# A549 NSCLC = tested on: A549 NSCLC
# ACHN renal = tested on: ACHN renal
# BT-549 breast = tested on: BT-549 breast
# CAKI-1 renal = tested on: CAKI-1 renal
# CCRF-CEM leukemia = tested on: CCRF-CEM leukemia
# COLO 205 colon = tested on: COLO 205 colon
# DU-145 prostate = tested on: DU-145 prostate
# EKVX NSCLC = tested on: EKVX NSCLC
# HCC-2998 colon = tested on: HCC-2998 colon
# HCT-15 colon = tested on: HCT-15 colon
# HL-60(TB) leukemia = tested on: HL-60(TB) leukemia
# HOP-62 NSCLC = tested on: HOP-62 NSCLC
# HOP-92 NSCLC = tested on: HOP-92 NSCLC
# HT29 colon = tested on: HT29 colon
# IGROV1 ovarian = tested on: IGROV1 ovarian
# K-562 leukemia = tested on: K-562 leukemia
# KM12 colon = tested on: KM12 colon
# LOX IMVI melanoma = tested on: LOX IMVI melanoma
# M14 melanoma = tested on: M14 melanoma
# MALME-3M melanoma = tested on: MALME-3M melanoma
# MCF7 breast = tested on: MCF7 breast
# MDA-MB-231 breast = tested on: MDA-MB-231 breast
# MDA-MB-435 = tested on: MDA-MB-435
# MOLT-4 leukemia = tested on: MOLT-4 leukemia
# NCI-H226 lung = tested on: NCI-H226 lung
# NCI-H23 lung = tested on: NCI-H23 lung
# NCI-H460 lung = tested on: NCI-H460 lung
# NCI-H522 lung = tested on: NCI-H522 lung
# NCI/ADR-RES ovarian = tested on: NCI/ADR-RES ovarian
# OVCAR-3 ovarian = tested on: OVCAR-3 ovarian
# OVCAR-4 ovarian = tested on: OVCAR-4 ovarian
# OVCAR-5 ovarian = tested on: OVCAR-5 ovarian
# OVCAR-8 ovarian = tested on: OVCAR-8 ovarian
# PC-3 prostate = tested on: PC-3 prostate
# RPMI-8226 leukemia = tested on: RPMI-8226 leukemia
# RXF 393 renal = tested on: RXF 393 renal
# SF-268 CNS = tested on: SF-268 CNS
# SF-295 CNS = tested on: SF-295 CNS
# SF-539 CNS = tested on: SF-539 CNS
# SK-MEL-2 melanoma = tested on: SK-MEL-2 melanoma
# SK-MEL-28 melanoma = tested on: SK-MEL-28 melanoma
# SK-MEL-5 melanoma = tested on: SK-MEL-5 melanoma
# SK-OV-3 ovarian = tested on: SK-OV-3 ovarian
# SN12C renal = tested on: SN12C renal
# SNB-19 CNS = tested on: SNB-19 CNS
# SNB-75 CNS = tested on: SNB-75 CNS
# SR leukemia = tested on: SR leukemia
# SW-620 colon = tested on: SW-620 colon
# T-47D breast = tested on: T-47D breast
# TK-10 renal = tested on: TK-10 renal
# U251 CNS = tested on: U251 CNS
# UACC-257 melanoma = tested on: UACC-257 melanoma
# UACC-62 melanoma = tested on: UACC-62 melanoma
# UO-31 renal = tested on: UO-31 renal
structure (smiles),measurement,setting,value
Cc1c2c(nn1-c1ccc(S/N=C3\SCC(=O)CN3Cc3ccccc3)cc1)-c1ccccc1CC2,GI50,786-0 renal,89.2 µM
same,TGI,786-0 renal,> 100 µM
same,GI50,A549 NSCLC,46.7 µM
same,TGI,A549 NSCLC,> 100 µM
same,GI50,ACHN renal,32.9 µM
same,TGI,ACHN renal,> 100 µM
same,GI50,BT-549 breast,22.5 µM
same,TGI,BT-549 breast,54.7 µM
same,GI50,CAKI-1 renal,26.6 µM
same,TGI,CAKI-1 renal,87.6 µM
same,GI50,CCRF-CEM leukemia,6.45 µM
same,TGI,CCRF-CEM leukemia,> 100 µM
same,GI50,COLO 205 colon,63.4 µM
same,TGI,COLO 205 colon,> 100 µM
same,GI50,DU-145 prostate,50.5 µM
same,TGI,DU-145 prostate,> 100 µM
same,GI50,EKVX NSCLC,46.6 µM
same,TGI,EKVX NSCLC,> 100 µM
same,GI50,HCC-2998 colon,72.9 µM
same,TGI,HCC-2998 colon,> 100 µM
same,GI50,HCT-15 colon,31.7 µM
same,TGI,HCT-15 colon,> 100 µM
same,GI50,HL-60(TB) leukemia,34.1 µM
same,TGI,HL-60(TB) leukemia,> 100 µM
same,GI50,HOP-62 NSCLC,> 100 µM
same,TGI,HOP-62 NSCLC,> 100 µM
same,GI50,HOP-92 NSCLC,> 100 µM
same,TGI,HOP-92 NSCLC,> 100 µM
same,GI50,HT29 colon,51.5 µM
same,TGI,HT29 colon,> 100 µM
same,GI50,IGROV1 ovarian,24 µM
same,TGI,IGROV1 ovarian,> 100 µM
same,GI50,K-562 leukemia,30.1 µM
same,TGI,K-562 leukemia,> 100 µM
same,GI50,KM12 colon,60.1 µM
same,TGI,KM12 colon,> 100 µM
same,GI50,LOX IMVI melanoma,10.7 µM
same,TGI,LOX IMVI melanoma,25 µM
same,GI50,M14 melanoma,46.5 µM
same,TGI,M14 melanoma,> 100 µM
same,GI50,MALME-3M melanoma,41.4 µM
same,TGI,MALME-3M melanoma,82.7 µM
same,GI50,MCF7 breast,3.74 µM
same,TGI,MCF7 breast,35 µM
same,GI50,MDA-MB-231 breast,24.8 µM
same,TGI,MDA-MB-231 breast,87.3 µM
same,GI50,MDA-MB-435,20.6 µM
same,TGI,MDA-MB-435,48.5 µM
same,GI50,MOLT-4 leukemia,9.62 µM
same,TGI,MOLT-4 leukemia,> 100 µM
same,GI50,NCI-H226 lung,38.5 µM
same,TGI,NCI-H226 lung,> 100 µM
same,GI50,NCI-H23 lung,49.8 µM
same,TGI,NCI-H23 lung,> 100 µM
same,GI50,NCI-H460 lung,29.4 µM
same,TGI,NCI-H460 lung,> 100 µM
same,GI50,NCI-H522 lung,22.6 µM
same,TGI,NCI-H522 lung,59.7 µM
same,GI50,NCI/ADR-RES ovarian,39.2 µM
same,TGI,NCI/ADR-RES ovarian,> 100 µM
same,GI50,OVCAR-3 ovarian,25.2 µM
same,TGI,OVCAR-3 ovarian,68.3 µM
same,GI50,OVCAR-4 ovarian,96.7 µM
same,TGI,OVCAR-4 ovarian,> 100 µM
same,GI50,OVCAR-5 ovarian,> 100 µM
same,TGI,OVCAR-5 ovarian,> 100 µM
same,GI50,OVCAR-8 ovarian,41 µM
same,TGI,OVCAR-8 ovarian,> 100 µM
same,GI50,PC-3 prostate,27.7 µM
same,TGI,PC-3 prostate,> 100 µM
same,GI50,RPMI-8226 leukemia,31.1 µM
same,TGI,RPMI-8226 leukemia,> 100 µM
same,GI50,RXF 393 renal,22.6 µM
same,TGI,RXF 393 renal,54.7 µM
same,GI50,SF-268 CNS,17.6 µM
same,TGI,SF-268 CNS,46.1 µM
same,GI50,SF-295 CNS,25.7 µM
same,TGI,SF-295 CNS,91.5 µM
same,GI50,SF-539 CNS,29.5 µM
same,TGI,SF-539 CNS,58.2 µM
same,GI50,SK-MEL-2 melanoma,58.2 µM
same,TGI,SK-MEL-2 melanoma,> 100 µM
same,GI50,SK-MEL-28 melanoma,24.6 µM
same,TGI,SK-MEL-28 melanoma,62.4 µM
same,GI50,SK-MEL-5 melanoma,9.08 µM
same,TGI,SK-MEL-5 melanoma,29.5 µM
same,GI50,SK-OV-3 ovarian,88.9 µM
same,TGI,SK-OV-3 ovarian,> 100 µM
same,GI50,SN12C renal,26.7 µM
same,TGI,SN12C renal,99.7 µM
same,GI50,SNB-19 CNS,> 100 µM
same,TGI,SNB-19 CNS,> 100 µM
same,GI50,SNB-75 CNS,75.9 µM
same,TGI,SNB-75 CNS,> 100 µM
same,GI50,SR leukemia,8.35 µM
same,TGI,SR leukemia,> 100 µM
same,GI50,SW-620 colon,25.5 µM
same,TGI,SW-620 colon,> 100 µM
same,GI50,T-47D breast,82.9 µM
same,TGI,T-47D breast,> 100 µM
same,GI50,TK-10 renal,50.4 µM
same,TGI,TK-10 renal,> 100 µM
same,GI50,U251 CNS,21.8 µM
same,TGI,U251 CNS,78.9 µM
same,GI50,UACC-257 melanoma,38.2 µM
same,TGI,UACC-257 melanoma,> 100 µM
same,GI50,UACC-62 melanoma,28.3 µM
same,TGI,UACC-62 melanoma,> 100 µM
same,GI50,UO-31 renal,64.3 µM
same,TGI,UO-31 renal,> 100 µM
